Results reported in the supplement of paper PMC10307832.

What was measured:
XMD8-85 + AZD7762 = compound: CN1CCN(CC1)C2=CC(=C(C=C2)NC3=NC=C4C(=N3)N(C5=CC=CC=C5C(=O)N4C)C)OC [XMD8-85] + NC(=O)Nc1cc(-c2cccc(F)c2)sc1C(=O)N[C@H]1CCCNC1 [AZD7762] (partner 0.2 µM); experiment: relative viability (nuclei count vs DMSO), 5 days (fraction); higher = more cells survive
Procedure, shortened: (§1)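 Relative viability equals treated-well nuclei counts divided by vehicle-well nuclei counts. Counts came from 4× images of lung cancer cell lines grown in 1536-well plates for 5 days after pin-tool dosing on the day after seeding. Dosing used one drug alone or a fixed anchor-drug dose plus five library-drug doses (not always all listed) in √10 steps, and values are medians of duplicate plates.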

XMD8-85 + Vorinostat = compound: CN1CCN(CC1)C2=CC(=C(C=C2)NC3=NC=C4C(=N3)N(C5=CC=CC=C5C(=O)N4C)C)OC [XMD8-85] + O=C(CCCCCCC(=O)Nc1ccccc1)NO [Vorinostat] (partner 1 µM); experiment: as above
Procedure, shortened: as §1

Cell Line | relative viability (XMD8-85 + AZD7762; first compound 0.08 µM) | relative viability (XMD8-85 + AZD7762; first compound 0.253 µM) | relative viability (XMD8-85 + AZD7762; first compound 0.8 µM) | relative viability (XMD8-85 + AZD7762; first compound 2.53 µM) | relative viability (XMD8-85 + AZD7762; first compound 8 µM) | relative viability (XMD8-85 + Vorinostat; first compound 0.08 µM) | relative viability (XMD8-85 + Vorinostat; first compound 0.253 µM) | relative viability (XMD8-85 + Vorinostat; first compound 0.8 µM) | relative viability (XMD8-85 + Vorinostat; first compound 2.53 µM) | relative viability (XMD8-85 + Vorinostat; first compound 8 µM)
NCI-H838 | 0.972 | 0.987 | 0.915 | 0.856 | 0.868 | 0.729 | 0.739 | 0.706 | 0.641 | 0.409
COR-L 105 |  |  |  |  |  | 0.737 | 0.91 | 0.768 | 0.661 | 0.543
HCC-366 | 0.216 | 0.311 | 0.335 | 0.336 | 0.259 | 0.292 | 0.346 | 0.304 | 0.378 | 0.181
NCI-H650 | 0.92 | 0.991 | 1 | 0.829 | 0.781 | 0.447 | 0.388 | 0.433 | 0.465 | 0.295
LCLC-97TM1 | 0.207 | 0.171 | 0.304 | 0.286 | 0.293 | 0.786 | 0.823 | 0.915 | 0.784 | 0.259
NCI-H1666 | 0.836 | 0.87 |  | 1.01 | 0.694 | 1.13 | 1.03 | 0.996 | 0.947 | 0.92
NCI-H1993 | 0.772 | 0.716 | 0.959 | 0.844 | 0.818 | 0.559 | 0.783 | 0.839 | 0.825 | 0.766
BEN | 0.831 | 0.661 | 0.691 | 0.653 | 0.463 | 0.554 | 0.536 | 0.627 | 0.501 | 0.455
HCC-827 | 0.23 | 0.185 | 0.231 | 0.263 | 0.206 | 0.909 | 0.824 | 0.802 | 0.959 | 0.773
HOP-62 | 0.497 | 0.708 | 0.523 |  | 0.421 | 0.605 | 0.673 | 0.622 | 0.598 | 0.231
NCI-H1355 | 0.678 | 0.697 | 0.798 | 0.817 |  | 0.682 | 0.564 | 0.642 | 0.655 | 0.545
A-427 |  | 0.81 | 0.675 | 0.63 | 0.478 | 0.89 | 0.866 | 0.911 | 0.865 | 0.659
NCI-H358 | 0.446 | 0.497 | 0.667 | 0.639 | 0.399 |  | 0.635 | 0.71 | 0.619 | 0.261
NCI-H23 | 0.173 | 0.287 | 0.23 | 0.18 | 0.2 | 0.508 | 0.634 | 0.638 | 0.591 | 0.31
LXF-289 | 1.09 | 1.16 | 1.16 | 1.12 | 0.995 | 0.749 | 0.893 | 0.781 | 0.875 | 0.795
NCI-H1975 | 0.742 | 0.656 | 0.661 | 0.653 | 0.547 | 0.708 | 0.691 | 0.706 | 0.693 | 0.473
NCI-H1703 | 0.107 | 0.147 | 0.133 | 0.119 | 0.107 |  |  |  |  | 
